Measurements: US5525735A, “Methods for synthesizing diverse collections of pyrrolidine compounds” (AFFYMAX Technologies NV, priority 1994, dated 1996)
Read-outs that look alike come from different tables or passages of the source.

Key:
rabbit kidney ACE [1] = target: T1, rabbit kidney ACE (Oryctolagus cuniculus, UniProt P12822); assay: Determination of inhibition constants (Ki), fluorometric ACE assay, hydrolysis of Hippuryl-His-Leu; format: biochemical
T1 construct: purchased Sigma; host or cells: rabbit kidney
T1 sequence (P12822 34-1310): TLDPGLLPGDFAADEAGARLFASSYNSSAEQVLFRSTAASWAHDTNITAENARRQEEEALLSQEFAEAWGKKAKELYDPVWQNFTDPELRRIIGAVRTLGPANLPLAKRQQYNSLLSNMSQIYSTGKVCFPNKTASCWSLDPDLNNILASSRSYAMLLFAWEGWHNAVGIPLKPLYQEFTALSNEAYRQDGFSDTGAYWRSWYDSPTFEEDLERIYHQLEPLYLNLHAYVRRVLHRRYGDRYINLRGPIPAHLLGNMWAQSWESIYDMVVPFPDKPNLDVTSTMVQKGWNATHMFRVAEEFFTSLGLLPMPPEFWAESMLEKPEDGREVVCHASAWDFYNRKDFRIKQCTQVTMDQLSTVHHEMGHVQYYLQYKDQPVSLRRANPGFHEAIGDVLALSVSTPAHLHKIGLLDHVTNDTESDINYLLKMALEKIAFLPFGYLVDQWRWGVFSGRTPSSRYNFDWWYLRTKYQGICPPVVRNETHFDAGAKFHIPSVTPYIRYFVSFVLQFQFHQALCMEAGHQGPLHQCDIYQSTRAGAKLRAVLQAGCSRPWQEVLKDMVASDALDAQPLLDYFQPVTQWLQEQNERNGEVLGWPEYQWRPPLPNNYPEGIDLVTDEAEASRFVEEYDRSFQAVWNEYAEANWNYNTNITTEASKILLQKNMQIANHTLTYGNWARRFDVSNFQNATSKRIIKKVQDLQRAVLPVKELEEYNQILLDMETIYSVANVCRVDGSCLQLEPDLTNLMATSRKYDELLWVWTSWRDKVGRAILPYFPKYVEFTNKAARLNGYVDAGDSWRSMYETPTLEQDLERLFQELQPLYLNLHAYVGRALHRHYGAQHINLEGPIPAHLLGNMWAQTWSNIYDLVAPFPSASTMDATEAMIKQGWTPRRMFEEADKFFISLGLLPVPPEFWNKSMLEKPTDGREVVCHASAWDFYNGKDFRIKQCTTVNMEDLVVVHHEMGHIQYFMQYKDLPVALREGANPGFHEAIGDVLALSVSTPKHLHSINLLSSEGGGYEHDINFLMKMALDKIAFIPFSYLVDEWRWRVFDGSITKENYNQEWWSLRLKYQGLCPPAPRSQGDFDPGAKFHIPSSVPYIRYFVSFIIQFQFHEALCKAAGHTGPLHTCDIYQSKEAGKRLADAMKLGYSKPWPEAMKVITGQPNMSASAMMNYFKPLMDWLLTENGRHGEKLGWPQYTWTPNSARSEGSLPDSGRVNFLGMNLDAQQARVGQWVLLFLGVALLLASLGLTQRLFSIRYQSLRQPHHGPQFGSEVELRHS
Procedure: The product, His-Leu, was then derivatized to a fluorophore by the addition of 2% o-phthalaldehyde (0.1 mL) in MeOH, followed by incubation at 25° C. for 8 minutes, addition of 2N HCl (0.2 mL), and then measuring fluorescence after 15 minutes incubation at 25° C.
(§1) The fluorescence intensity (arbitrary units) was determined using an SLM Aminco model 8000 spectrofluorometer equipped with a temperature regulated cell using an excitation wavelength at 360 nm and with an emission wavelength at 490 nm. The amount of His-Leu formed with time was determined from standard curves of fluorescence versus concentration of His-Leu (Sigma).
Inhibition constants were determined from double reciprocal plots of rate of product formation versus substrate concentration in the absence and presence of inhibitor.

rabbit kidney ACE [2] = target: T1, rabbit kidney ACE; assay: in vitro inhibition of ACE by soluble compound pools (deconvolution analysis of library, fluorometric assay, IC50); format: biochemical; details: identified by iterative assay and sub-library resynthesis
Source text: Functionalized prolines and proline analogs are frequently found as the C-terminal residue in numerous ACE inhibitors. Using the methods described herein, a library of prolines and proline analogs has been prepared. The library was formed by the split synthesis method^35, using four amino acids, four aldehydes, five olefins, and three mercaptoacyl chlorides as shown in FIG. 3 below. […] After cleavage from the resin (10% TFA in dichloromethane) and deacetylation of the protected mercaptoacyl proline products with ethylenediamine, the library was screened for in vitro inhibition of ACE^33 as soluble compound pools through four iterations of assay and sub-library resynthesis. At each step of this deconvolution analysis, the building block affording the most inhibitory pool was selected for the subsequent sub-library resynthesis.
To each product was added 200 μ.LAMBDA. of 1.0M ethylenediamine in methanol under nitrogen. […] The ACE inhibitory activity of each pool was immediately determined. […]
as §1, with “(Sigma). […]” for “(Sigma).”

Row | Ki (rabbit kidney ACE [1]; after deacetylation, isomer assigned 2-R, read-out: Ki (individual diastereomers after deacetylation, earlier eluting isomer)) [nM] | Ki (rabbit kidney ACE [1]; 50 pM enzyme, 20 minute preincubation, assay times 10 or 20 minutes, pH 8.3, read-out: Ki (dissociation constant of the enzyme-inhibitor complex)) [nM] | Ki (rabbit kidney ACE [1]; after deacetylation, read-out: Ki (individual diastereomers after deacetylation, later eluting isomer)) [nM] | type of inhibition (rabbit kidney ACE [1]; double reciprocal plots, 50 pM enzyme, 20 minute preincubation) | fold more active than captopril (rabbit kidney ACE [1]; relative to captopril in the same assay) | ACE inhibitory activity in words (library deconvolution) (rabbit kidney ACE [2]) | SMILES
1 | > 1000 | – | – | – | – | – | COC(=O)[C@@H]1C[C@H](C(=O)O)N(C(=O)[C@H](C)CS)[C@@H]1c1ccccc1 (single isomer, unassigned) [earlier eluting isomer]
2 | – | 0.16 ± 0.05 | ~0.16 | competitive type inhibition | approximately 3 fold | potent ACE inhibitor | COC(=O)[C@H]1C[C@@H](C(=O)O)N(C(=O)[C@H](C)CS)[C@H]1c1ccccc1 [Compound 9, 1-(3'-thio-2'(S)-methyl-1'-oxopropyl)-5-phenyl-2,4-pyrrolidinedicarboxylicacid 4-methyl ester]
